Several values for one entry are separate records, joined by “and”; a condition that tells them apart may be missing. Equal entries are not always repeated.
Tested on: NCI-H1876 complex spheroid growth, % test/control
Assay: Anticancer human tumor NCI-H1876 cell line growth inhibition [Asc];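 note: compound exposure lasted 7 days starting three days after seeding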;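 for viability, T/C: 100% = DMSO vehicle control wells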
Settings: for viability, T/C: stronger effect = lower value
Procedure, shortened: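 Concentration series start at each agent's clinical Cmax, or at 10 microM when none is established, and drop in half-log steps; agents are applied alone or together to complex spheroids built with HUVEC and hMSC.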

NC1CCC(NC2CC2c2ccccc2)CC1 (centres undefined) + CCN1C(C(=O)NC23CCC(C(=O)O)(CC2)CC3)C(c2cccc(Cl)c2F)C2(C(=O)Nc3cc(Cl)ccc32)C12CCCCC2
IC50 (curve of first compound, second compound 0.00949 µM): > 0.1 µM | IC50 (curve of first compound, second compound 0.03 µM): > 0.1 µM | IC50 (curve of first compound, second compound 0.0949 µM): > 0.1 µM | IC50 (curve of first compound, second compound 0.3 µM): > 0.1 µM | IC50 (curve of first compound, second compound 0.949 µM): > 0.1 µM | IC50 (curve of first compound, second compound 3 µM): > 0.1 µM | viability, T/C (second compound 0.00949 µM, first compound 0.000316 µM): 103% | viability, T/C (second compound 0.00949 µM, first compound 0.001 µM): 105% | viability, T/C (second compound 0.00949 µM, first compound 0.00316 µM): 105% | viability, T/C (second compound 0.00949 µM, first compound 0.01 µM): 113% | viability, T/C (second compound 0.00949 µM, first compound 0.0316 µM): 108% | viability, T/C (second compound 0.00949 µM, first compound 0.1 µM): 119% | viability, T/C (second compound 0.03 µM, first compound 0.000316 µM): 112% | viability, T/C (second compound 0.03 µM, first compound 0.001 µM): 107% | viability, T/C (second compound 0.03 µM, first compound 0.00316 µM): 110% | viability, T/C (second compound 0.03 µM, first compound 0.01 µM): 117% | viability, T/C (second compound 0.03 µM, first compound 0.0316 µM): 120% | viability, T/C (second compound 0.03 µM, first compound 0.1 µM): 110% | viability, T/C (second compound 0.0949 µM, first compound 0.000316 µM): 106% | viability, T/C (second compound 0.0949 µM, first compound 0.001 µM): 117% | viability, T/C (second compound 0.0949 µM, first compound 0.00316 µM): 113% | viability, T/C (second compound 0.0949 µM, first compound 0.01 µM): 113% | viability, T/C (second compound 0.0949 µM, first compound 0.0316 µM): 117% | viability, T/C (second compound 0.0949 µM, first compound 0.1 µM): 112% | viability, T/C (second compound 0.3 µM, first compound 0.000316 µM): 117% | viability, T/C (second compound 0.3 µM, first compound 0.001 µM): 116% | viability, T/C (second compound 0.3 µM, first compound 0.00316 µM): 123% | viability, T/C (second compound 0.3 µM, first compound 0.01 µM): 124% | viability, T/C (second compound 0.3 µM, first compound 0.0316 µM): 118% | viability, T/C (second compound 0.3 µM, first compound 0.1 µM): 108% | viability, T/C (second compound 0.949 µM, first compound 0.000316 µM): 118% | viability, T/C (second compound 0.949 µM, first compound 0.001 µM): 121% | viability, T/C (second compound 0.949 µM, first compound 0.00316 µM): 134% | viability, T/C (second compound 0.949 µM, first compound 0.01 µM): 113% | viability, T/C (second compound 0.949 µM, first compound 0.0316 µM): 133% | viability, T/C (second compound 0.949 µM, first compound 0.1 µM): 116% | viability, T/C (second compound 3 µM, first compound 0.000316 µM): 122% | viability, T/C (second compound 3 µM, first compound 0.001 µM): 112% | viability, T/C (second compound 3 µM, first compound 0.00316 µM): 111% | viability, T/C (second compound 3 µM, first compound 0.01 µM): 126% | viability, T/C (second compound 3 µM, first compound 0.0316 µM): 125% | viability, T/C (second compound 3 µM, first compound 0.1 µM): 111%

COc1c(OCCCN2CCOCC2)ccc2c3n(c(=NC(=O)c4cnc(N)nc4)nc12)CCN3
viability, T/C (compound 0.00316 µM): 106% and 91.5% and 100% | viability, T/C (compound 0.01 µM): 89.7% and 97.9% and 107% | viability, T/C (compound 0.0316 µM): 85% and 84.5% and 99.3% | viability, T/C (compound 0.1 µM): 79.1% and 75.3% and 72% | viability, T/C (compound 0.316 µM): 64.5% and 59.5% and 60.7% | viability, T/C (compound 1 µM): 48.8% and 45.6% and 44.9% | IC50 (curve of compound): 0.724 µM and 0.679 µM and 0.992 µM

Reference: PubChem BioAssay AID1963441 (Molecular Pharmacology Branch, DTP, NCI, 2024)
